Like-named read-outs stand apart in the source and are kept apart here.

The subject of data set [1] is neuronal death in CA1/CA2 subfields of the hippocampus. Kind of data set: Global ischemia in gerbils (bilateral carotid occlusion). The data set is classed as in vivo. Conditions: 40 mg per kg ip, 15 min, 24 h and 48 h after reperfusion; gerbil. The source says: b) Global Ischemia in Gerbils
The ability of the JNK inhibitors described in formula I to protect cell death during a stroke event may be assessed using the following protocol:
The gerbil bilateral carotid occlusion is a well-described animal model of acute ischemic stroke and involves relatively easy surgical techniques.
The neuronal degeneration in the hippocampus develops over several days and is often referred as “delayed neuronal death”. In addition, the neurodegeneration observed histologically is obvious and easily quantified (11). Furthermore, the histopathology seen in the gerbil is similar to that observed in the hippocampal CA1 region of the human brain following a cardiac arrest. Behavior observations, such as memory tests, could even be performed in the case of gerbils. This kind of tests for appreciation of the degree of recovery is not easily manageable in other models such as in rat whose learning abilities are much poorer (12).
The neuroprotective effect according to formula I to protect may be assessed using-the gerbil global ischemia model and such a protocol: […]

Data set [2] can be described thus: Assessment of the BBB passage: brain and plasma sampling. The class given is in vivo, Sprague Dawley rats. Conditions: rat, i.v. 10 mg/kg; for concentration at 0.25 h / concentration at 0.5 h / concentration at 1 h: pooled n = 2. An excerpt:
c) Assessment of the BBB Passage: Brain and Plasma Sampling
The compounds of the present invention are useful in the treatment and/or prophylaxis of cerebral ischemic disorders or CNS disorders. Specifically, the compounds of the present invention show a good capacity to cross the blood-brain barrier (EBB). The BBB passing capacity of the compounds according to formulae I or II may be assessed using the below protocols. The objective of this assay is to quantify the amount of the test compounds according to formulae I or II in the brain of rats following i.v. administration.
Six male Crl:CD(SD)Br Sprague Dawley rats (about 8 weeks old and having a weight of about 300 g) were divided into the 3 following groups:
2 animals for i.v. administration (10 mg/kg of test compound of formula I in 0.9% NaCl for injection). The test compound is administered by single dose (dose regimen). The sampling is performed at 0.25 h after sacrifice.
2 animals for i.v. administration (10 mg/kg of test compound of formula I in 0.9% NaCl for injection). The test compound is administered by single dose (dose regimen). The sampling is performed at 0.5 h after sacrifice.
2 animals for i.v. administration (10 mg/kg of test compound of formula I in 0.9% NaCl for injection). The test compound is administered by single dose (dose regimen). The sampling is performed at 1 h after sacrifice.
At each scheduled killing time, the animals of the corresponding group are deeply anaesthetised with diethyl ether. The blood for the corresponding blood samples is collected into heparinised tubes and centrifuged to remove the blood cells thus providing plasma. Plasma samples obtained at each sampling time (i.e. at t=0.25 h, 0.5 h, 1 h) from the rats of each group after administration of the test compound of formula (I) are pooled in order to obtain 1 pooled sample per sampling time per group. Rats are then sacrificed by exsanguination.
For the-brain sampling, the whole brain (cerebrum and cerebellum) of the sacrificed animals is removed. Brain from two animals per sampling time (i.e. at t=0.25 h, 0.5 h, 1 h after administration) are pooled in order to obtain one pooled sample per sampling time. Each pooled sample is homogenized in a solvent mixture (acetonitrile/methanol/dimethyl-sulfoxide, 50:48:2 by volume) centrifuged and the supernatant analyzed for the test compound.
Concentrations in plasma samples and brain homogenates are quantified according to an analytical HPLC-MS/MS method, properly developed for the compound.
The test compound used in this assay is the one set out in Example 1 (i.e. 1,3-benzothiazol-2-yl[2-({4-[(4-methylpiperazin-1-yl)methyl]-benzyl}oxy)pyrimidin-4-yl]acetonitrile.

Consider `CN1CCN(Cc2ccc(COc3nccc(C(C#N)c4nc5ccccc5s4)n3)cc2)CC1` (centres unmarked) [Example 1, 1,3-benzothiazol-2-yl[2-({4-[(4-methylpiperazin-1-yl)methyl]-benzyl}-oxy)pyrimidin-4yl]acetonitrile], for which the “inhibition of neuronal death” value in data set [1] was “about 60%”. For the same molecule, the concentration at 0.25 h in data set [2] (male, Crl:CD(SD)Br Sprague Dawley, brain, iv, 0.25 h, read-out: Brain concentration) stood at 919 ng/g; in data set [2] (male, Crl:CD(SD)Br Sprague Dawley, plasma, iv, 0.25 h, read-out: Plasma concentration) it was 2840 ng/mL. In addition, the concentration at 0.5 h came to 657 ng/g in data set [2] (male, Crl:CD(SD)Br Sprague Dawley, brain, iv, 0.5 h, read-out: Brain concentration) and 2160 ng/mL in data set [2] (male, Crl:CD(SD)Br Sprague Dawley, plasma, iv, 0.5 h, read-out: Plasma concentration). Further, the concentration at 1 h came to 679 ng/g in data set [2] (male, Crl:CD(SD)Br Sprague Dawley, brain, iv, 1 h, read-out: Brain concentration) and 1980 ng/mL in data set [2] (male, Crl:CD(SD)Br Sprague Dawley, plasma, iv, 1 h, read-out: Plasma concentration). The Kp at 0.25 h in data set [2] (male, Crl:CD(SD)Br Sprague Dawley, brain/plasma, iv, 0.25 h, read-out: Brain/Plasma ratio) is 0.32. Moreover, the Kp at 0.5 h in data set [2] (male, Crl:CD(SD)Br Sprague Dawley, brain/plasma, iv, 0.5 h, read-out: Brain/Plasma ratio) stood at 0.3. For the same molecule, the Kp at 1 h in data set [2] (male, Crl:CD(SD)Br Sprague Dawley, brain/plasma, iv, 1 h, read-out: Brain/Plasma ratio) stood at 0.34. Also, the “passage into the brain” value in data set [2] (0.25-1 h) is “considerable and sustained passage of the test compound into the brain”.

(Values after patent publication US7314878B2, “Piperazine benzothiazoles as agents for the treatment of cerebral ischemic disorders or CNS disorders” (Laboratories Serono SA, priority 2002, dated 2008).)
